Test results from patent US20090156639A1, “COMPOSITIONS AND METHODS OF TREATMENT USING L-TYPE CALCIUM CHANNEL BLOCKERS AND CHOL[…]” (priority 2003, published 2009).
Counter-ions that a name gives are not always drawn.

Test system: young adult male Sprague-Dawley rats
Assay: Novel Object Recognition Memory test (hippocampus-dependent nonspatial memory task)
Assay type: in vivo, rat
Settings: for % Exploration of the novel object: prior to training, test 24 hours after training, n=6; for approximate optimum dosage in the Novel Object Recognition Memory test: from dose response data (FIGS. 1, 2, 4)
Protocol: The general procedure for compound evaluation in Novel Object Recognition Memory (Hippocampus-Dependent Nonspatial Memory Task) is as follows: • 1. The animals are transported in their home cages from the vivarium to a dimly lit (5-6 lux) training room and acclimated for approximately 45 minutes. • 2. The animals are than individually placed in the training/testing environment (an opaque plastic chamber, 61 cm×42 cm×37 cm with bedding on the floor) for 5 minutes of habituation. Thereafter, the animals are returned to their home cage.
They remained in the testing room for approximately 15 minutes after the last animal is habituated before being returned to their colony room.
For the memory test, the objects to be discriminated are a goblet (11 cm in height, 6.5 cm in diameter) and a conical candlestick holder (11 cm in height, 6 cm in diameter) made of green, nontransparent glass. There are multiple copies of each object used for training and testing. Object pairs are randomly assigned within and between conditions. For training, two identical objects are placed 8 cm from the sides of the two short walls of the chamber. • 4. The day after initial habituation, the animals are returned to the testing room and acclimated as described in Step 1. Drug and/or vehicle is then administered according to experimental design (i.p.: 263/8-gauge needle; or p.o.: 18-gauge needle) at an interval ranging from 24 hours prior to 24 hours post-training. The training procedure is begun by placing the animal, nose facing the wall, into the empty chamber at a position in the center of a long wall. After 1 minute of re-habituation, the animal is removed from the chamber and placed in a holding cage (45 cm×26 cm×20 cm) with bedding for a period of 10 seconds. During this delay, the training objects are placed in the chamber. The animal is then returned to the chamber for a 15-minute period of exploration. The animal's movements are observed via cameral located over the chamber and are recorded on videotape. After the training session, the animal is returned to its home cage. The objects are cleaned with an 85% EtOH solution. The animals remain in the testing room for approximately 15 minutes after the last animal is trained before being returned to their colony room. • 5. Following a delay interval (1 hour to several weeks, but usually 24 hours), the animals are again returned to the testing room and acclimated as described in Step 1. After this, individual animals are re-habituated to the empty chamber for 1 minute as was described in Step 4. For the test, two new objects are placed in the chamber: one is identical to the objects used during training, while the other is novel. The position of the novel object is randomized for each animal. The animals are allowed to actively explore until they accumulate a total of 60 seconds of exploration. During the test period, the amount of time spent exploring either the novel or the familiar object is recorded using R. E. Clark's V.P.C. program, which also signals when 60 seconds of exploration has been accumulated. The animal's movements are observed via a camera located over the chamber and are recorded on videotape. Any animal that fails to explore either object or to reach the set criterion within 15 minutes is excluded from analysis. After the test, the animals are returned to their home cage, and then to the colony room. The objects are cleaned with an 85% EtOH solution. • 6.

SMILES | % Exploration of the novel object (donepezil 0.05 mg/kg i.p. alone (suboptimal dose) plus vehicle) | approximate optimum dosage in the Novel Object Recognition Memory test | % Exploration of the novel object (Compound A 1.00 mg/kg i.p. alone (suboptimal dose) plus vehicle)
COc1cc2c(cc1OC)C(=O)C(CC1CCN(Cc3ccccc3)CC1)C2 (racemic) [donepezil, (+/−) 2,3-dihydro-5,6-dimethoxy-2-[[1-(phenylmethyl)-4-piperidinyl]methyl]-IH-indene-1-one hydrochloride] | 50% | ~0.5 mg/kg | 
COCCOC(=O)C1=C(C)NC(C)=C(C(=O)OC(C)C)C1c1cccc(C#N)c1Cl (single isomer, unassigned; (+)) [Compound A, (+) isopropyl 2-methoxyethyl 4-(2-chloro-3-cyano-phenyl)-1,4-dihydro-2,6-dimethylpyridine-3,5-dicarboxylate] |  | ~10 mg/kg | 50%
CC12CC3CC(C)(C1)CC(N)(C3)C2 [memantine] |  | ~1.0 mg/kg | 
